Data from patent US6716628B2, “Chondrogenesis promoters and indolin-2-one derivatives” (Chugai Seiyaku Kabushiki Kaisha, priority 1999, dated 2004).

Tests used:
[1] = tested on: common mouse chondrocyte and adipocyte precursor cell line (CL-1); experiment: Uptake of 35S-labeled sulfuric acid into CL-1; format: cell-based; conditions: 10 μmol/L (A and F also 1 or 5 μmol/L), 48 h culture, uptake in final 24 h
Experimental: The above-mentioned cell line CL-1 was cultured in a 96-well cell culturing plate (Wallac Corp.) for a liquid scintillation counter (Wallac Corp.) to a cell density of 1000 per well. The medium used was α-MEM (GIBCO Corp.) containing 100 U/mL of penicillin (Meiji Seika Co., Ltd.), 100 μg/mL of streptomycin (Banyu Pharmaceutical Corp.) and 10% fetal bovine serum (INTERGEN Corp.). When the CL-1 cells reached confluency, the medium was exchanged with one containing 10 μmol/L of compounds A, B, C, D, E, F and G, and after 24 hours, ^35S-labeled sulfuric acid was added at 0.5 μCi per well and culturing was continued. For compounds A and F, a medium was also prepared with a concentration of 1 or 5 μmol/L. After 24 hours, the medium was discarded and the cell layer was fixed for 2 hours at room temperature using 0.2 mL of 5% paraformaldehyde (0.1 mol/L phosphate buffer solution (pH 7.4, Wako Pure Chemical Industries) containing 0.4% cetylpyridinium chloride (Wako Pure Chemical Industries). After discarding the fixing solution, it was washed once with the same solution and the washed solution was discarded. After adding 0.1 mL of scintillator (Wallac Corp.) to the cell layer and stirring, the radioactivity was measured with a scintillation counter (Wallac Corp.).

[2] = tested on: common mouse chondrocyte and adipocyte precursor cell line (CL-1); experiment: Uptake of 35S-labeled sulfuric acid into CL-1; format: cell-based; conditions: 10 μmol/L (A and F also 1 or 5 μmol/L), 48 h culture
articular cartilage = conditions: cited from earlier work
[3] = tested on: experimental animal models with induced arthritis; conditions: administered intraarticularly; Lab. Invest. 78(2):133-142, 1998; cited from earlier work

| Molecule | differentiation of CL-1 to chondrocytes (from 35S-labeled sulfuric acid uptake) [1] | differentiation of CL-1 to adipocytes [2] | synovitis (articular cartilage; in vivo) | chondrogenesis (articular cartilage; intraarticularly administered, Lab. Invest. 71(2):279-290, 1994) | arthritis-induced loss of proteoglycans in articular cartilage [3] |
| --- | --- | --- | --- | --- | --- |
| 3R)-1-(2,2-diisopropoxyethyl)-3-((4-methylphenyl) aminocarbonylmethyl)-3-(N′-(4-methylphenyl)ureido)indolin-2-one [Compound E] | clearly promote | clearly suppress |  |  |  |
| CCOC(CN1C(=O)[C@](CC(=O)Nc2ccc(CC)cc2)(NC(=O)Nc2ccc(C)cc2)c2ccccc21)OCC [Compound B, (3R)-1-(2,2-diethoxyethyl)-3-(4-ethylphenyl)aminocarbonylmethyl-3-(N′-(4-methylphenyl)ureido)indolin-2-one] | clearly promote | clearly suppress |  |  |  |
| CCOC(CN1C(=O)[C@](CC(=O)Nc2ccc(N(C)C)cc2)(NC(=O)Nc2ccc(C)cc2)c2ccccc21)OCC [Compound C] | clearly promote | clearly suppress |  |  |  |
| COC(CN1C(=O)C(CC(=O)Nc2ccc(C)cc2)(NC(=O)Nc2ccc(C)cc2)c2ccccc21)OC (stereo not drawn) [Compound D] | clearly promote | clearly suppress |  |  |  |
| Cc1ccc(NC(=O)C[C@]2(NC(=O)Nc3ccc(C)cc3)C(=O)N(CC(OCCF)OCCF)c3ccccc32)cc1 [Compound F] | clearly promote | clearly suppress |  |  |  |
| Cc1ccc(NC(=O)C[C@]2(NC(=O)Nc3ccc(C)cc3)C(=O)N(CC(OCCCl)OCCCl)c3ccccc32)cc1 [Compound G, 3R)-1-(2,2-bis(2-chloroethoxy)ethyl)-3-((4-methylphenyl) 3-(N′-(4-methylphenyl)ureido)indolin-2-one] | clearly promote | clearly suppress |  |  |  |
| TGF-β |  |  | provoke synovitis |  |  |
| TGF-β1: one isoform of TGF-β (Transforming growth factor β) |  |  |  | promote chondrogenesis | suppresses |
